Measurements reported in article PMC3989164, “Multi-Kinase Inhibitor C1 Triggers Mitotic Catastrophe of Glioma Stem Cells Mainly through MELK Kinase Inhibition” (PLoS ONE, 2014).

Biological target: T1, maternal embryonic leucine-zipper kinase (MELK) (Homo sapiens, UniProt Q14680)
T1 construct: recombinant MELK protein
Assay: in vitro kinase assay with recombinant MELK, ten-dose curve
Type: biochemical

T1 sequence (Q14680 whole entry): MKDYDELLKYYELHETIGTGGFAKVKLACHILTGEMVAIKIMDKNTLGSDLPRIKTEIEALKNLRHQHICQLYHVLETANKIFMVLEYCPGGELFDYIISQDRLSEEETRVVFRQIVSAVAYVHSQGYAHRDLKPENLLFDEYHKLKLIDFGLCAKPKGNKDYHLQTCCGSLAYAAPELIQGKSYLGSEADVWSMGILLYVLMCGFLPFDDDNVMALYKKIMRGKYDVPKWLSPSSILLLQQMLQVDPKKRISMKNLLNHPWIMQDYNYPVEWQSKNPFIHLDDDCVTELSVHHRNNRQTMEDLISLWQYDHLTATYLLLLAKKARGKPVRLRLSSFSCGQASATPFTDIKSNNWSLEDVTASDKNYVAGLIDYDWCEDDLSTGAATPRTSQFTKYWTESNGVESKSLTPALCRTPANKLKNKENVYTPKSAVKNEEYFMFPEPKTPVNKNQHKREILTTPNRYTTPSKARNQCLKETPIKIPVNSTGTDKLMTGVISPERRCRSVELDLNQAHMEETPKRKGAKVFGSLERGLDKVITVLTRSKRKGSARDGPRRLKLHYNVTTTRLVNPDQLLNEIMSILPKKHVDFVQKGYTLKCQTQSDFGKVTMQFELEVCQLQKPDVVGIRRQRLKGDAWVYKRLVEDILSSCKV

CCc1c[nH]c(=O)c2c1[nH]c1ccc3cc(OC)ccc3c12 [C1, Compound 1]
IC50: 42 nM
